Reference: patent US8450357B2, “Compositions comprising an aryl pyrazole and/or a formamidine, methods and uses thereof” (Merial Limited, priority 2008, dated 2013)
Like-named read-outs stand apart in the source and are kept apart here.

Columns and labels:
[1] = tested on: ticks; assay: Efficacy of combination of fipronil with amitraz against ticks on dogs; format: in vivo; settings: 10 mg/kg BW of actives, topical
Method: (§1) A fipronil formulation (commercial product) was prepared and stored separately from amitraz. Amitraz was formulated with the same carrier. Both parts, fipronil and amitraz in solvent(s) were stored separately and applied simultaneously. Amounts applied were calculated to keep dose at 10% (w/v) each in final formulation and 10 mg/kg BW of actives in amount applied.
In brief, treatment was applied by parting the hair on the midline of the neck, between the base of the skull and the shoulder blades, and applying the formulation directly onto the skin.

[2] = tested on: fleas; assay: Efficacy of combination of fipronil and amitraz against fleas on dogs; format: in vivo; settings: topical
Method: as §1
The amitraz and fipronil composition described in Example 10 were used in this study. […] Treatment was applied by parting the hair on the midline of the neck, between the base of the skull and the shoulder blades, and applying the formulation directly onto the skin.

[3] = tested on: adult Rhipicephalus sanguineus ticks; assay: whole plant or invertebrate; format: in vivo; settings: for Synergistic Ratio (EC50): EC50 alone divided by EC50 with Amitraz (12.5 ppm); for Synergistic Ratio (EC90): EC90 alone divided by EC90 with Amitraz (12.5 ppm); for mortality at 0.0016 ppm / mortality at 0.006 ppm / mortality at 0.025 ppm / mortality at 0.1 ppm / mortality at 0.4 ppm / mortality at 1.6 ppm / mortality at 6.25 ppm / mortality at 25 ppm: Rhipicephalus sanguineus
Excerpt: Dosages were serially diluted using this same formulation.

[4] = tested on: adult Rhipicephalus sanguineus ticks; assay: whole plant or invertebrate
Method: Fipronil was dissolved in acetone containing 0.019% of a mixture of Triton 152 and Triton 172 (1:3, v/v) and 0.4% DMSO to achieve the desired concentration. Dosages were serially diluted using this same formulation. For treatments containing amitraz, amitraz was added to the above solution to achieve the desired concentration. 0.5 ml of the solution was used to treat 20 ml scintillation vials containing a 0.125″ hole in the cap. […] Filter papers treated with this same solution were placed in the cap and bottom of the treated vial. Vials were capped and held over night at 24° C. and 95% RH after which 10 adult Rhipicephalus sanguineus ticks were placed into each vial. The vials were held under the same conditions mentioned above for the duration of the test. […]

[5] = 6 h, read-out: 6 hour % Mortality Rep 1
[6] = 6 h, read-out: 6 hour % Mortality Rep 2
[7] = 6 h, read-out: 6 hour Avg. % Mortality
[8] = 24 h, read-out: 24 hour % Mortality Rep 1
[9] = 24 h, read-out: 24 hour % Mortality Rep 2
[10] = 24 h, read-out: 24 hour Avg. % Mortality
[11] = 48 h, read-out: 48 hour % Mortality Rep 1
[12] = 48 h, read-out: 48 hour % Mortality Rep 2
[13] = 48 h, read-out: 48 hour Avg. % Mortality
[14] = 4 h, read-out: 4 hour % Mortality Rep 1
[15] = 4 h, read-out: 4 hour % Mortality Rep 2
[16] = 4 h, read-out: 4 hour Avg. % Mortality

In the case of `N#Cc1nn(-c2c(Cl)cc(C(F)(F)F)cc2Cl)c(N)c1[S+]([O-])C(F)(F)F` (centres unmarked) [fipronil, 5-amino-3-cyano-1-(2,6-dichloro-4-trifluoromethylphenyl)-4-trifluoromethylsulfinylpyrazole], the Efficacy against ticks ([1]; 2 days after treatment) is reported as 90.9%, the Efficacy against ticks ([1]; 16 days after treatment) is reported as 100% and the Efficacy against ticks ([1]; 23 days after treatment) is reported as 99.3%. For the same compound, the Efficacy against ticks ([1]; 30 days after treatment) was 53.9%, the Efficacy against ticks ([1]; 37 days after treatment) was 43.9% and the Efficacy against ticks ([1]; 44 days after treatment) was 37.9%. It also gave an Efficacy against fleas ([2]; 2 days after treatment) of 100%, an Efficacy against fleas ([2]; 16 days after treatment) of 100% and an Efficacy against fleas ([2]; 23 days after treatment) of 100%. It also gave an Efficacy against fleas ([2]; 30 days after treatment) of 94.4%, an Efficacy against fleas ([2]; 37 days after treatment) of 63.4% and an Efficacy against fleas ([2]; 44 days after treatment) of 55.9%. For the same compound, the Efficacy against fleas ([2]; 51 days after treatment) was 74.7%, the “Synergistic Ratio (EC50)” value ([3]; 6 hour Eval) was 14.7 and the “Synergistic Ratio (EC90)” value ([3]; 6 hour Eval) was >6.76. For the same compound, the “Synergistic Ratio (EC50)” value ([3]; 24 hour Eval) was 156.8, the “Synergistic Ratio (EC90)” value ([3]; 24 hour Eval) was >156 and the “Synergistic Ratio (EC50)” value ([3]; 48 hour Eval) was 56.4. The “Synergistic Ratio (EC90)” value ([3]; 48 hour Eval) was 32.3, the mortality at 0.0016 ppm [3, 5] was 0% and the mortality at 0.006 ppm [3, 5] was 0%. It also gave a mortality at 0.025 ppm [3, 5] of 0%, a mortality at 0.1 ppm [3, 5] of 0% and a mortality at 0.4 ppm [3, 5] of 0%. The mortality at 1.6 ppm [3, 5] was 0%, the mortality at 6.25 ppm [3, 5] was 0% and the mortality at 25 ppm [3, 5] was 40%. For the same compound, the mortality at 0.0016 ppm [3, 6] was 0%, the mortality at 0.006 ppm [3, 6] was 0% and the mortality at 0.025 ppm [3, 6] was 0%. For the same compound, the mortality at 0.1 ppm [3, 6] was 0%, the mortality at 0.4 ppm [3, 6] was 0% and the mortality at 1.6 ppm [3, 6] was 0%. It also gave a mortality at 6.25 ppm [3, 6] of 20%, a mortality at 25 ppm [3, 6] of 60% and a mortality at 0.0016 ppm [3, 7] of 0%. The mortality at 0.006 ppm [3, 7] was 0%, the mortality at 0.025 ppm [3, 7] was 0% and the mortality at 0.1 ppm [3, 7] was 0%. It also gave a mortality at 0.4 ppm [3, 7] of 0%, a mortality at 1.6 ppm [3, 7] of 0% and a mortality at 6.25 ppm [3, 7] of 10%. It also gave a mortality at 25 ppm [3, 7] of 50%, a mortality at 0.0016 ppm [3, 8] of 0% and a mortality at 0.006 ppm [3, 8] of 0%. The mortality at 0.025 ppm [3, 8] was 0%, the mortality at 0.1 ppm [3, 8] was 0% and the mortality at 0.4 ppm [3, 8] was 0%. It also gave a mortality at 6.25 ppm [3, 8] of 90%, a mortality at 25 ppm [3, 8] of 80% and a mortality at 0.0016 ppm [3, 9] of 0%. The mortality at 0.006 ppm [3, 9] was 0%, the mortality at 0.025 ppm [3, 9] was 0% and the mortality at 0.1 ppm [3, 9] was 0%. The mortality at 0.4 ppm [3, 9] was 0%, the mortality at 1.6 ppm [3, 9] was 40% and the mortality at 6.25 ppm [3, 9] was 50%. The mortality at 25 ppm [3, 9] was 90%, the mortality at 0.0016 ppm [3, 10] was 0% and the mortality at 0.006 ppm [3, 10] was 0%. For the same compound, the mortality at 0.025 ppm [3, 10] was 0%, the mortality at 0.1 ppm [3, 10] was 0% and the mortality at 0.4 ppm [3, 10] was 0%. The mortality at 1.6 ppm [3, 10] was 30%, the mortality at 6.25 ppm [3, 10] was 70% and the mortality at 25 ppm [3, 10] was 85%. The mortality at 0.0016 ppm [3, 11] was 0%, the mortality at 0.006 ppm [3, 11] was 0% and the mortality at 0.025 ppm [3, 11] was 0%. It also gave a mortality at 0.1 ppm [3, 11] of 0%, a mortality at 0.4 ppm [3, 11] of 20% and a mortality at 1.6 ppm [3, 11] of 50%. For the same compound, the mortality at 6.25 ppm [3, 11] was 100%, the mortality at 25 ppm [3, 11] was 100% and the mortality at 0.0016 ppm [3, 12] was 0%. For the same compound, the mortality at 0.006 ppm [3, 12] was 0%, the mortality at 0.025 ppm [3, 12] was 0% and the mortality at 0.1 ppm [3, 12] was 0%. For the same compound, the mortality at 0.4 ppm [3, 12] was 20%, the mortality at 1.6 ppm [3, 12] was 60% and the mortality at 6.25 ppm [3, 12] was 100%. For the same compound, the mortality at 25 ppm [3, 12] was 100%, the mortality at 0.0016 ppm [3, 13] was 0% and the mortality at 0.006 ppm [3, 13] was 0%. For the same compound, the mortality at 0.025 ppm [3, 13] was 0%, the mortality at 0.1 ppm [3, 13] was 0% and the mortality at 0.4 ppm [3, 13] was 20%. For the same compound, the mortality at 1.6 ppm [3, 13] was 55%, the mortality at 6.25 ppm [3, 13] was 100% and the mortality at 25 ppm [3, 13] was 100%. For the same compound, the mortality at 0.025 ppm [4, 14] was 0%, the mortality at 0.1 ppm [4, 14] was 0% and the mortality at 0.4 ppm [4, 14] was 0%. It also gave a mortality at 1.6 ppm [4, 14] of 0%, a mortality at 6.25 ppm [4, 14] of 10% and a mortality at 25 ppm [4, 14] of 80%. For the same compound, the mortality at 0.025 ppm [4, 15] was 0%, the mortality at 0.1 ppm [4, 15] was 0% and the mortality at 0.4 ppm [4, 15] was 0%. For the same compound, the mortality at 1.6 ppm [4, 15] was 0%, the mortality at 6.25 ppm [4, 15] was 20% and the mortality at 25 ppm [4, 15] was 90%. For the same compound, the mortality at 0.025 ppm [4, 16] was 0%, the mortality at 0.1 ppm [4, 16] was 0% and the mortality at 0.4 ppm [4, 16] was 0%. For the same compound, the mortality at 1.6 ppm [4, 16] was 0%, the mortality at 6.25 ppm [4, 16] was 15% and the mortality at 25 ppm [4, 16] was 85%. It also gave a mortality at 0.025 ppm [4, 8] of 0%, a mortality at 0.1 ppm [4, 8] of 0% and a mortality at 0.4 ppm [4, 8] of 0%. It also gave a mortality at 6.25 ppm [4, 8] of 100%, a mortality at 25 ppm [4, 8] of 100% and a mortality at 0.025 ppm [4, 9] of 0%. It also gave a mortality at 0.1 ppm [4, 9] of 0%, a mortality at 0.4 ppm [4, 9] of 0% and a mortality at 1.6 ppm [4, 9] of 30%. The mortality at 6.25 ppm [4, 9] was 90%, the mortality at 25 ppm [4, 9] was 100% and the mortality at 0.025 ppm [4, 10] was 0%. The mortality at 0.1 ppm [4, 10] was 0%, the mortality at 0.4 ppm [4, 10] was 0% and the mortality at 1.6 ppm [4, 10] was 50%. For the same compound, the mortality at 6.25 ppm [4, 10] was 95%, the mortality at 25 ppm [4, 10] was 100% and the mortality at 0.025 ppm [4, 11] was 0%. The mortality at 0.1 ppm [4, 11] was 0%, the mortality at 0.4 ppm [4, 11] was 0% and the mortality at 1.6 ppm [4, 11] was 100%. It also gave a mortality at 6.25 ppm [4, 11] of 100%, a mortality at 25 ppm [4, 11] of 100% and a mortality at 0.025 ppm [4, 12] of 0%. The mortality at 0.1 ppm [4, 12] was 0%, the mortality at 0.4 ppm [4, 12] was 0% and the mortality at 1.6 ppm [4, 12] was 70%. For the same compound, the mortality at 6.25 ppm [4, 12] was 90%, the mortality at 25 ppm [4, 12] was 100% and the mortality at 0.025 ppm [4, 13] was 0%. For the same compound, the mortality at 0.1 ppm [4, 13] was 0%, the mortality at 0.4 ppm [4, 13] was 0% and the mortality at 1.6 ppm [4, 13] was 85%. The mortality at 6.25 ppm [4, 13] was 95% and the mortality at 25 ppm [4, 13] was 100%.
